This note sets out measurements from US8946426B2, “Substituted bicyclic heterocyclic compounds as gamma secretase modulators” (Janssen Pharmaceuticals, Inc., priority 2009, dated 2015).

Where only a bound is given, the exact number is not on record here.

Assay [1] relates to Aβtotal. As to the kind of experiment: Method 2: Aβtotal Alphalisa in supernatant of SKNBE2 cells carrying APP 695-wild type (Table 7c). The format is cell-based. The conditions noted are these: Method 2, Alphalisa, overnight incubation. An outline of the steps: (§1)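 SKNBE2 cells expressing wild-type APP695 incubated overnight at 37° C with test compound, 10^4 cells/well. Supernatant Aβ42 (C-terminal JRF/cAβ42/26 with N-terminal JRF/AβN/25) and Aβtotal (JRF/AβN/25 with 4G8) quantified by AlphaLISA. IC50 from 4-parameter fit of percent of untreated control.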
(Bead proximity is the source of the signal in Alpha formats.)

A further assay has as its system Aβ42. As to the kind of experiment: Method 2: Aβ42 Alphalisa in supernatant of SKNBE2 cells carrying APP 695-wild type (Table 7c). The assay is classed as cell-based. The conditions noted are these: Method 2, Alphalisa, overnight incubation. An outline of the steps: as §1
Assay [2] concerns Aβtotal. As to the kind of experiment: In vivo efficacy: Aβtotal lowering in brain after single oral dose (Table 8). The conditions noted are these: mouse brain soluble fraction, ELISA, compared to untreated animals. From the text:
To determine whether acute administration of an Aβ42 lowering agent would reduce Aβ42 levels in vivo, non-transgenic rodents, e.g. mice or rats were used. Alternatively, two to three month old Tg2576 mice expressing APP695 containing the “Swedish” variant can be used or a transgenic mouse model developed by Dr. Fred Van Leuven (K.U.Leuven, Belgium) and co-workers, with neuron-specific expression of a clinical mutant of the human amyloid precursor protein [V7171] (Moechars et al., 1999 J. Biol. Chem. 274, 6483). Young transgenic mice have high levels of Aβ in the brain but no detectable Aβ deposition. At approximately 6-8 months of age, the transgenic mice start to display spontaneous, progressive accumulation of β-amyloid (Aβ) in the brain, eventually resulting in amyloid plaques within the subiculum, hippocampus and cortex. Animals treated with the Aβ42 lowering agent were examined and compared to those untreated or treated with vehicle and brain levels of soluble Aβ42 and total Aβ would be quantitated by standard techniques, for example, using ELISA. Treatment periods varied from hours to days and were adjusted based on the results of the Aβ42 lowering once a time course of onset of effect could be established.
A typical protocol for measuring Aβ42 lowering in vivo is shown but it is only one of many variations that could be used to optimize the levels of detectable Aβ. For example, Aβ42 lowering compounds were formulated in 20% of Captisol® (a sulfobutyl ether of β-cyclodextrin) in water or 20% hydroxypropyl β cyclodextrin. The Aβ42 lowering agents were administered as a single oral dose or by any acceptable route of administration to overnight fasted animals. After four hours, the animals were sacrificed and Aβ42 levels were analysed.
Blood was collected by decapitation and exsanguinations in EDTA-treated collection tubes. Blood was centrifuged at 1900 g for 10 min at 4° C. and the plasma recovered and flash frozen for later analysis. The brain was removed from the cranium and hindbrain. The cerebellum was removed and the left and right hemisphere were separated. The left hemisphere was stored at −18° C. for quantitative analysis of test compound levels. The right hemisphere was rinsed with phosphate-buffered saline (PBS) buffer and immediately frozen on dry ice and stored at −80° C. until homogenization for biochemical assays.
Mouse brains were resuspended in 10 volumes of 0.4% DEA (diethylamine)/50 mM NaCl pH 10 (for non-transgenic animals) or 0.1% 3-[(3-cholamidopropyl)-dimethyl-ammonio]-1-propanesulfonate (CHAPS) in tris buffered saline (TBS) (for transgenic animals) containing protease inhibitors (Roche-11873580001 or 04693159000 per gram of tissue, e.g. for 0.158 g brain, add 1.58 ml of 0.4% DEA. All samples were sonicated for 30 sec on ice at 20% power output (pulse mode). Homogenates were centrifuged at 221.300×g for 50 min. The resulting high speed supernatants were then transferred to fresh tubes and were optionally further purified before the next step. A portion of the supernatant was neutralized with 10% 0.5 M Tris-HCl and this was used to quantify Aβtotal.
The obtained supernatants were purified with Water Oasis HLB reverse phase columns (Waters Corp., Milford, Mass.) to remove non-specific immunoreactive material from the brain lysates prior subsequent Aβ detection. Using a vacuum manifold, all solutions were passed through the columns at a rate of approximately 1 ml per minute, so the vacuum pressure was adjusted accordingly throughout the procedure. Columns were preconditioned with 1 ml of 100% MeOH, before equilibration with 1 ml of H2O. Non-neutralized brain lysates were loaded onto the columns. The loaded samples were then washed twice with the first wash performed with 1 ml of 5% MeOH, and the second wash with 1 ml of 30% MeOH. Finally, the Aβ was eluted from the columns and into 100×30 mm glass tubes, with a solution of 90% MeOH with 2% NH4OH. […]
In general terms: ELISA stands for enzyme-linked immunosorbent assay.

Usually IC50 stands for the concentration needed to halve the response being measured.

`COc1cc(Nc2cc(C(F)(F)F)nn3cc(C)nc23)ccc1-c1cnc(C)o1` [Compound 195]: the half-inhibitory concentration (IC50) in the assay on Aβtotal [1] was more than 10000 nM; in the assay with Aβ42, 282 nM. Moreover, in the assay on Aβtotal [2], the “Aβtotal (% Ctrl)_Mean” value is reported as 99 % Ctrl.

As for `COc1cc(Nc2cccc3c2nc(-c2ccc(F)cc2)n3C)ccc1-c1cnc(C)o1` [Compound 16], the values for the IC50 with Aβtotal [1] (Homo sapiens) and in the assay with Aβ42 (Homo sapiens) were 8710 nM and 16 nM, respectively. Also, in the assay with Aβtotal [2], the “Aβtotal (% Ctrl)_Mean” value worked out at 95 % Ctrl.

As for `Cc1ncoc1-c1ccc(Nc2cccc3c2nc(-c2ccc(F)cc2)n3C)nc1` [Compound 10], the IC50 with Aβtotal [1] (Homo sapiens) was more than 10000 nM; in the assay with Aβ42 (Homo sapiens) it was 1740 nM. Moreover, the “Aβtotal (% Ctrl)_Mean” value in the assay with Aβtotal [2] is given as 109 % Ctrl.

On to `COc1cccc(-c2nc3c(Nc4ccc(-c5cnc(C)o5)nc4)cc(F)cc3n2C)c1` [Compound 105], for which the values for the IC50 in the assay with Aβtotal [1] and in the assay with Aβ42 were more than 10000 nM and 14 nM, respectively. Besides, the “Aβtotal (% Ctrl)_Mean” value with Aβtotal [2] turned out to be 96 % Ctrl.

Turning to `COc1cc(Nc2cncc3c2nc(-c2ccc(F)cc2)n3C)ccc1-c1cnc(C)o1` [Compound 186], the half-inhibitory concentration (IC50) is more than 10000 nM with Aβtotal [1] and 41 nM in the assay with Aβ42. The “Aβtotal (% Ctrl)_Mean” value with Aβtotal [2] came out at 82 % Ctrl.

On to `COc1cc(Nc2nc(C(F)(F)F)cn3cc(C)nc23)ccc1-c1cnc(C)o1` [Compound 170], for which the IC50 was more than 10000 nM with Aβtotal [1] and 7410 nM in the assay on Aβ42. Further, in the assay on Aβtotal [2], the “Aβtotal (% Ctrl)_Mean” value is reported as 99 % Ctrl.

For `Cc1ncc(-c2ccc(Nc3cccc4c3nc(-c3ccc(F)cc3)n4C(C)C)cn2)o1` [Compound 18], the half-inhibitory concentration (IC50) in the assay with Aβtotal [1] (Homo sapiens) is 6460 nM; with Aβ42 (Homo sapiens), 20 nM. Moreover, in the assay on Aβtotal [2], the “Aβtotal (% Ctrl)_Mean” value came to 94 % Ctrl.

`COc1cc(Nc2cccc3c2nc(-c2ccc(F)cc2)n3C)ccc1-c1ocnc1C` [Compound 12]: the values for the IC50 in the assay with Aβtotal [1] (Homo sapiens) and in the assay with Aβ42 (Homo sapiens) were 7760 nM and 35 nM, respectively. Also, the “Aβtotal (% Ctrl)_Mean” value with Aβtotal [2] was found to be 101 % Ctrl.

As to `COc1cc(Nc2cccc3c2nc(CCC(F)(F)F)n3C)ccc1-c1ocnc1C` [Compound 11], the IC50 in the assay on Aβtotal [1] (Homo sapiens) is more than 10000 nM; in the assay with Aβ42 (Homo sapiens), 363 nM. Also, the “Aβtotal (% Ctrl)_Mean” value with Aβtotal [2] is 99 % Ctrl.

On to `Cc1ncc(-c2ccc(Nc3nccc4c3nc(-c3ccc(F)cc3)n4C)cc2F)o1` [Compound 17], for which the IC50 in the assay with Aβtotal [1] (Homo sapiens) was more than 10000 nM; in the assay on Aβ42 (Homo sapiens), 166 nM. In the assay on Aβtotal [2], the “Aβtotal (% Ctrl)_Mean” value is 109 % Ctrl.
